Here are results for 21 compounds from US20260022114A1, “N-(5-SUBSTITUTED-[(1,3,4-THIADIAZOLYL) OR (1,3-THIAZOLYL)](SUBSTITUTED)CARBOXAMIDE COMPOUNDS, PHARMACEUTICAL COMPOSITIONS, AND METHODS OF PREPARING THE AMIDE COMPOUNDS AND OF THEIR USE” (Repare Therapeutics Inc., priority 2022, published 2026).

Molecules are shown by their SMILES. A value given as a limit tells only on which side of the number the result lay.

PolQ ATPase enzyme (1-894), sequence (O75417 1-894): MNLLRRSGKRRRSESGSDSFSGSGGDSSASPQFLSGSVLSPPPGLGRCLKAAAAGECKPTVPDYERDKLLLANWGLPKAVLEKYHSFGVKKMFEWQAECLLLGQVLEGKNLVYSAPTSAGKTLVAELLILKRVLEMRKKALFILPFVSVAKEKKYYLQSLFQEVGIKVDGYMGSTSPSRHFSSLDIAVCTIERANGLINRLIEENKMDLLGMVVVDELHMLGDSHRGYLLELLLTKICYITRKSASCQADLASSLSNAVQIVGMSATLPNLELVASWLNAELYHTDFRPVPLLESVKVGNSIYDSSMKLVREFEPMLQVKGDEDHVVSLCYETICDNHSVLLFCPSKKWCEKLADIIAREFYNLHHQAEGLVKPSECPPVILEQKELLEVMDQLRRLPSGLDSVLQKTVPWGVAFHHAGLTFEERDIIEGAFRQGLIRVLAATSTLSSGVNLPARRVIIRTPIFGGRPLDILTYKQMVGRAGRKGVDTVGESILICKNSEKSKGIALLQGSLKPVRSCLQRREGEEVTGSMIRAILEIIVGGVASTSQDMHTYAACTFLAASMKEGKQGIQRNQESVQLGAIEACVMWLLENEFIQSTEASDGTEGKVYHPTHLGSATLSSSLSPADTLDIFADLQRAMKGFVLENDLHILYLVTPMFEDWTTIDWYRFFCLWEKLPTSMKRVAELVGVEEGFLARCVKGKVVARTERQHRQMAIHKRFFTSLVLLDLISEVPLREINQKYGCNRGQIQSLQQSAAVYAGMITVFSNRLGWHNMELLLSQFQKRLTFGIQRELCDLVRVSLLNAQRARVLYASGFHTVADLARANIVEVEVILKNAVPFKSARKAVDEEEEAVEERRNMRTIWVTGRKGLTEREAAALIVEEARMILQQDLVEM

The target of the assay is PolQ ATPase enzyme (1-894) (Homo sapiens (Human), UniProt O75417). The experiment in a line: Polθ ATPase enzymatic assay (0.5 nM enzyme concentration), ADP-Glo. The following applies: 0.5 nM PolQ ATPase enzyme (1-894); average IC50. The assay is classed as biochemical. On the procedure:
PolQ ATPase enzyme (1-894) at 0.5 nM is incubated with a 10-point concentration response of inhibitors for 15 min at rt in the following buffer: 50 mM Tris Cl pH 7.5, 10% glycerol, 5 mM DTT, 10 mM MgCl2, 0.1 mg/ml BSA. Following pre-incubation with inhibitors, DNA (Fork C) at 20 nM and ATP at 100 μM are added to start the reaction. Enzymatic reaction proceeds at rt for 180 min. ATP consumption is measured using the ADP-Glo assay from Promega. Luminescence is read on the Envision and IC50 are determined using the variable slope 4-parameters equation.
Oligos are annealed by heating at 95° C. for 5 min in the following buffer (10 mM Tris-HCl PH7.5, 50 mM NaCl, 1 mM EDTA) and cooled to rt. […]
A general note: ADP-Glo turns the ADP formed in a reaction into a luminescent signal.
Usually IC50 stands for the concentration at which inhibition is half-maximal. Read a low IC50 as greater potency. Consider `COc1cnc(C(F)F)cc1-c1cc(C2C[C@@H]2C(=O)N(C)C)ncc1C(=O)Nc1nnc(C#CC2CC2)s1` (mixture of isomers) [Compound 361], for which the IC50 was 1.9 nM.

`COc1cnc(C(F)F)cc1-c1cc(C2C[C@@H]2C(=O)N(C)C)ccc1C(=O)Nc1nnc(C#CC2CC2)s1` (mixture of isomers) [Compound 362]: the IC50 is 1.4 nM.

Turning to `COc1cnc(C(F)F)cc1-c1cc(C2C[C@H]2C(=O)N(C)C)ccc1C(=O)Nc1nnc(C#CC2CC2)s1` (mixture of isomers) [Compound 363], the concentration for half-maximal inhibition (IC50) was less than 0.25 nM.

Take `C#C[C@H]1CC1c1nnc(NC(=O)c2ccc(-c3nnc(C)o3)cc2-c2cc(C(F)F)ncc2OC)s1` (mixture of isomers) [Compound 373]: it took 4.6 nM to reach half-maximal inhibition (IC50).

The compound `COc1cnc(C(F)F)cc1-c1cc(N2CC3CC(C3)C2=O)ncc1C(=O)Nc1nnc(C#CC2CC2)s1` (racemic) [Compound 381] came in with a 50% inhibitory concentration (IC50) of less than 0.25 nM.

As to `COc1cnc(C(F)F)cc1-c1cc(N2CC3CC3CC2=O)ncc1C(=O)Nc1nnc(C#CC2CC2)s1` (racemic) [Compound 388], the IC50 is less than 0.25 nM.

The compound `COc1cnc(C(F)F)cc1-c1cc(C2CC(C)CCC2=O)ncc1C(=O)Nc1nnc(C#CC2CC2)s1` (racemic) [Compound 389] showed an IC50 of less than 0.25 nM.

Compound `COc1cnc(C(F)F)cc1-c1cc(N2CCC3CCC3C2=O)ncc1C(=O)Nc1nnc(C#CC2CC2)s1` (racemic) [Compound 443] had a 50% inhibitory concentration (IC50) of less than 0.25 nM.

The compound `COc1cnc(C(F)F)cc1-c1cc(N2CCC(C(C)(C)C)CC2=O)ncc1C(=O)Nc1nnc(C#CC2CC2)s1` (racemic) [Compound 444] registered an IC50 of less than 0.25 nM.

Turning to `COc1cnc(C(F)F)cc1-c1cc(N2CCC(C)CCC2=O)ncc1C(=O)Nc1nnc(C#CC2CC2)s1` (racemic) [Compound 485], the IC50 came out at 0.7 nM.

The compound `COc1cnc(C(F)F)cc1-c1cc(-n2ccc(C)cc2=O)ncc1C(=O)Nc1nnc([C@H]2C[C@@H]2C#N)s1` (racemic) [Compound 539] gave an IC50 of 33.3 nM.

For the compound `COc1cnc(C(F)F)cc1-c1cc(C#CC2CCCN(C)C2)ncc1C(=O)Nc1nnc(C#CC2CC2)s1` (racemic) [Compound 556], half-maximal inhibition (IC50) required 1.8 nM.

Take `COc1cnc(C(F)F)cc1-c1cc(-n2ccc(C)cc2=O)ncc1C(=O)Nc1nnc(C#CC2CC23CC3)s1` (racemic) [Compound 557]: the IC50 is less than 0.25 nM.

Regarding `COc1cnc(C(F)F)cc1-c1cc(C#CCC2CCNC2=O)ncc1C(=O)Nc1nnc(C#CC2CC2)s1` (racemic) [Compound 570], the IC50 is less than 0.25 nM.

With `COc1cnc(C(F)F)cc1-c1cc(-n2ccc(C)cc2=O)ncc1C(=O)Nc1nnc([C@H]2C[C@@H]2c2cncs2)s1` (racemic) [Compound 579], half-maximal inhibition (IC50) required 0.33 nM.

The compound `COc1cnc(C(F)F)cc1-c1cc(-n2ccc(C)cc2=O)ncc1C(=O)Nc1nnc([C@H]2C[C@@H]2C2CC2)s1` (racemic) [Compound 580] had an IC50 of 0.34 nM.

`COc1cnc(C(F)F)cc1-c1cc(-n2ccc(C)cc2=O)ncc1C(=O)Nc1nnc([C@H]2C[C@@H]2C2CCOCC2)s1` (racemic) [Compound 581]: the IC50 was determined as 0.99 nM.

In the case of `COc1cnc(C(F)F)cc1-c1cc(-n2ccc(C)cc2=O)ncc1C(=O)Nc1nnc([C@H]2C[C@@H]2c2ccnn2C)s1` (racemic) [Compound 582], the IC50 turned out to be 1.3 nM.

Take `COc1cnc(C(F)F)cc1-c1cc(-n2ccc(C)cc2=O)ncc1C(=O)Nc1nnc([C@H]2C[C@@H]2c2ccn(C)n2)s1` (racemic) [Compound 583, 2″-(difluoromethyl)-5″-methoxy-4-methyl-N-(5-((1S,2S)-2-(1-methyl-1H-pyrazol-3-yl)cyclopropyl)-1,3,4-thiadiazol-2-yl)-2-oxo-2H-[1,2′:4′,4″-terpyridine]-5′-carboxamide]: the IC50 is less than 0.25 nM.

The compound `COc1cnc(C(F)F)cc1-c1cc(-n2ccc(C)cc2=O)ncc1C(=O)Nc1nnc([C@H]2C[C@@H]2c2cnn(C)c2)s1` (racemic) [Compound 584] yielded an IC50 of 0.51 nM.

In the case of `C=C[C@H]1C[C@@H]1c1nnc(NC(=O)c2cnc(-n3ccc(C)cc3=O)cc2-c2cc(C(F)F)ncc2OC)s1` (racemic) [Compound 585], the IC50 stood at 0.47 nM.
